Results on 24 compounds are retold here after ChEMBL document CHEMBL1133350, “Novel DMARDs on the basis of a new concept of dual cytokine regulation, TNF-alpha suppression and IL-10 augmentation” (Bioorg Med Chem Lett, 2000).

For orientation: logP means the decadic logarithm of the partition coefficient of the neutral form, usually between octanol and water. One may read the inhibition in vivo as the change of the read-out against control, counted positive when it falls. A higher inhibition in vivo goes with strong suppression.

Data set [1] has as its system Rattus norvegicus. The data set is described as follows: The compound (10 mg/kg) was tested for its therapeutic effect in an adjuvant-induced arthritis rat. In kind it is functional.
Data set [2] concerns Mus musculus. The data set is described as follows: The compound (10 mg/kg) administered perorally was tested for its ability to augment IL-10 in LPS-stimulated mice. The format is functional.
Data set [3] in a line: Partition coefficient (logP). Particulars: octanol/water.
Data set [4] has as its system Mus musculus. The data set is described as follows: Inhibit tumor necrosis factor alpha production in LPS-stimulated mice after peroral administration of 10 mg/kg. In kind it is functional. Particulars: route oral.
Data set [5] concerns Rattus norvegicus. The data set is described as follows: The compound (30 mg/kg) was tested for its therapeutic effect in an adjuvant-induced arthritis rat. The format is functional.
Data set [6] can be described thus: Bioavailability of the compound in rats after administration of 30 mg/kg. The format is ADME, organism-based. The following applies: rat, in vivo, read-out: Bioavailabiility.

On to `CC(=O)NCc1ccc(CN2CCN(c3nccs3)CC2)cc1`, for which the Therapeutic effect in the data set with Rattus norvegicus [1] is listed as 80%. Also, the “IL-10 level (% of control)” value in the data set on Mus musculus [2] worked out at 1150%. This compound also had a lipophilicity (logP) in data set [3] of 1.23. The compound also had an inhibition in vivo at 10 mg/kg with Mus musculus [4] of 85%.
The matching figures for `CC(=O)NC1(c2ccc(CN3CCN(c4nccs4)CC3)cc2)CC1`: 133%, 646%, 1.58 and 84%.
For the compound `CC(=O)NC1(c2ccc(CN3CCN(c4ccccc4)CC3)cc2)CC1`, in the data set on Mus musculus [2], the “IL-10 level (% of control)” value is 712%. For the same compound, the logP in data set [3] was 1.9. For the same compound, the inhibition in vivo at 10 mg/kg with Mus musculus [4] came out at 90%.
The matching figures for `CC(=O)NC(C)(C)c1ccc(CN2CCN(c3ncccn3)CC2)cc1`: 200%, 1.18 and 77%.
Turning to `CC(=O)NC(C)(C)c1ccc(CN2CCN(c3nccs3)CC2)cc1`, the Therapeutic effect in the data set with Rattus norvegicus [1] was determined as 131%. Further, the “IL-10 level (% of control)” value in the data set with Mus musculus [2] is on record as 712%. In addition, the logP in data set [3] worked out at 2.01. Moreover, at 10 mg/kg the inhibition in vivo in the data set on Mus musculus [4] was 85%.
The matching figures for `CC(=O)NCc1ccc(CN2CCN(c3cccc(F)n3)CC2)cc1`: 144%, 973%, 1.45 and 85%.
The matching figures for `CC(=O)NCc1ccc(CN2CCN(c3ccccn3)CC2)cc1`: 62%, 642%, 0.88 and 88%.
Take `CC(=O)NCc1ccc(CN2CCN(c3ccccc3)CC2)cc1`: the Therapeutic effect with Rattus norvegicus [5] worked out at 35%. Moreover, the “IL-10 level (% of control)” value with Mus musculus [2] was found to be 376%. This compound came in with a logP in data set [3] of 1.55. For the same compound, 10 mg/kg produced 89% inhibition in vivo in the data set on Mus musculus [4].
In the case of `CC(=O)NC(C)(C)c1ccc(CN2CCN(c3cccc(F)n3)CC2)cc1`, the Therapeutic effect with Rattus norvegicus [1] was 142%. Also, the “IL-10 level (% of control)” value with Mus musculus [2] is given as 579%. The same compound had a logP in data set [3] of 2.24. The compound also showed an inhibition in vivo at 10 mg/kg in the data set with Mus musculus [4] of 88%.
In the case of `CC(=O)NCc1ccc(CN2CCN(c3ccncc3)CC2)cc1`, the “IL-10 level (% of control)” value in the data set with Mus musculus [2] is 198%. The compound also returned a logP in data set [3] of 0.51. The compound also had an inhibition in vivo at 10 mg/kg in the data set on Mus musculus [4] of 40%.
For `CC(=O)NC(C)c1ccc(CN2CCN(c3ccccc3)CC2)cc1` (stereo unspecified), in the data set with Mus musculus [2], the “IL-10 level (% of control)” value is 270%. The logP in data set [3] is 2.08. The compound also came in with an inhibition in vivo at 10 mg/kg in the data set on Mus musculus [4] of 87%.
Consider `CC(=O)NC1(c2ccc(CN3CCN(c4ncccn4)CC3)cc2)CC1`, for which, in the data set on Rattus norvegicus [1], the Therapeutic effect is reported as 163%. Besides, the “IL-10 level (% of control)” value in the data set on Mus musculus [2] is given as 419%. Moreover, in data set [6], the bioavailability was found to be 76%. Moreover, the logP in data set [3] was 0.75. The compound also registered an inhibition in vivo at 10 mg/kg in the data set with Mus musculus [4] of 88%.
For `CC(=O)NC(C)c1ccc(CN2CCN(c3cccc(F)n3)CC2)cc1` (stereo unspecified), in the data set with Rattus norvegicus [1], the Therapeutic effect is 173%. In the data set on Mus musculus [2], the “IL-10 level (% of control)” value came out at 404%. In data set [3], this compound had a logP of 1.99. The compound further registered an inhibition in vivo at 10 mg/kg with Mus musculus [4] of 82%.
With `CC(=O)NCc1ccc(CN2CCN(c3cnccn3)CC2)cc1`, in the data set with Mus musculus [2], the “IL-10 level (% of control)” value came to 334%. Moreover, in data set [3], the log partition coefficient (logP) is -0.09. The compound also registered an inhibition in vivo at 10 mg/kg with Mus musculus [4] of 76%.
As for `CC(=O)NCc1ccc(CN2CCN(c3ncccn3)CC2)cc1`, the Therapeutic effect in the data set with Rattus norvegicus [1] was 46%. The “IL-10 level (% of control)” value in the data set with Mus musculus [2] is 713%. The compound also returned a log partition coefficient (logP) in data set [3] of 0.4. This compound returned an inhibition in vivo at 10 mg/kg with Mus musculus [4] of 82%.
The matching figures for `CC(=O)NC1(c2ccc(CN3CCN(c4cccc(F)n4)CC3)cc2)CC1`: 55%, 454%, 1.8 and 84%.
Consider `CC(=O)NC(C)(C)c1ccc(CN2CCN(c3ccccc3)CC2)cc1`, for which the Therapeutic effect with Rattus norvegicus [5] amounted to 80%. In the data set with Mus musculus [2], the “IL-10 level (% of control)” value amounted to 561%. The same compound displayed a logP in data set [3] of 2.83. In the data set with Mus musculus [4], this compound registered an inhibition in vivo at 10 mg/kg of 88%.
Take `CC(=O)NCc1ccc(CN2CCN(c3ccc(F)cc3F)CC2)cc1`: the Therapeutic effect with Rattus norvegicus [5] came to 173%. In addition, the “IL-10 level (% of control)” value in the data set with Mus musculus [2] was 2293%. This compound also displayed an inhibition in vivo at 10 mg/kg in the data set on Mus musculus [4] of 91%.
As for `CC(=O)NC(C)c1ccc(CN2CCN(c3nccs3)CC2)cc1` (stereo unspecified), the Therapeutic effect in the data set with Rattus norvegicus [1] was 101%. Moreover, the “IL-10 level (% of control)” value in the data set on Mus musculus [2] stood at 621%. For the same compound, the logP in data set [3] stood at 1.76. In the data set with Mus musculus [4], the inhibition in vivo at 10 mg/kg was found to be 84%.
Consider `CC(=O)NCc1ccc(CN2CCN(c3cccnc3)CC2)cc1`, for which the “IL-10 level (% of control)” value in the data set on Mus musculus [2] is 236%. In data set [3], the logP amounted to 0.49. Further, 10 mg/kg produced 61% inhibition in vivo in the data set on Mus musculus [4].
In the case of `CCC(CC)(NC(C)=O)c1ccc(CN2CCN(c3ccccc3)CC2)cc1`, in the data set on Mus musculus [2], the “IL-10 level (% of control)” value turned out to be 321%. In addition, the logP in data set [3] worked out at 3.35. In the data set with Mus musculus [4], this compound yielded an inhibition in vivo at 10 mg/kg of 81%.
The matching figures for `CCC(NC(C)=O)c1ccc(CN2CCN(c3ccccc3)CC2)cc1` (stereo unspecified): 222%, 2.59 and 82%.
The matching figures for `CC(=O)NC(C)c1ccc(CN2CCN(c3ncccn3)CC2)cc1` (stereo unspecified): 298%, 0.93 and 78%.
Turning to `CC(=O)NCc1ccc(CN2CCN(c3nccn3C)CC2)cc1`, the “IL-10 level (% of control)” value in the data set on Mus musculus [2] was 747%. The same compound had a logP in data set [3] of 0.67. In addition, 10 mg/kg produced 62% inhibition in vivo in the data set on Mus musculus [4].
